Results on 15 molecules are retold here after PubChem BioAssay (NCI).

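Dose response: 5 concentrations. Exposure: 48 h. Format: 96-well plates. Endpoint: linear interpolation; highest concentration if not reached. Abbreviation: GI50, concentration required for 50% inhibition of growth. TGI marks complete inhibition of growth.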

Among the test systems are ACHN renal; HCT-116 colon; KM12 colon; RXF 393 renal; SF-295 CNS; SR leukemia; UACC-257 melanoma; TK-10 renal; HS 578T breast; MCF7 breast.
Common to all, as to experiment: NCI anticancer screen, dose series, 48 h

Take `O=c1cccccc1NCCCCCCCNc1cccccc1=O`: the TGI is above 100 µM in the test on ACHN renal; above 100 µM with HCT-116 colon; above 100 µM with KM12 colon; 25.8 µM in the test with RXF 393 renal; above 100 µM in the test with SF-295 CNS; 89.8 µM with SR leukemia. The TGI with UACC-257 melanoma stood at 45.7 µM.
On to `COC(=O)C1C(=O)CC2CCCCC21` (stereo not drawn), for which the TGI with ACHN renal, with HCT-116 colon, in the test with KM12 colon, in the test on RXF 393 renal, in the test with SR leukemia and in the test with TK-10 renal was above 100 µM in each case. Besides, in the test with UACC-257 melanoma, the TGI is above 100 µM.
Take `Cl/C(N=Nc1ccccc1)=N/Nc1ccccc1`: the TGI with ACHN renal, with HCT-116 colon, in the test on KM12 colon, in the test on RXF 393 renal, with SF-295 CNS and with SR leukemia was above 100 µM throughout. Also, the TGI in the test with TK-10 renal and with UACC-257 melanoma was above 100 µM each time.
As to `CCc1cccc(C)c1N1C(=O)C(=O)C(c2nc3ccccc3o2)C(=O)C1=O`, the TGI in the test with ACHN renal, in the test with HCT-116 colon, with KM12 colon, with SF-295 CNS, with SR leukemia and with TK-10 renal was above 100 µM in each case. Moreover, in the test on UACC-257 melanoma, the TGI is above 100 µM.
Consider `O=c1nc(-c2ccccc2)cc(CC(O)c2ccc(Cl)c(Cl)c2)[nH]1` (stereo not drawn), for which the TGI with ACHN renal, in the test with HCT-116 colon, in the test with KM12 colon, with RXF 393 renal, with SF-295 CNS and in the test on TK-10 renal was above 100 µM each time. The molecule further returned a TGI in the test with UACC-257 melanoma above 100 µM.
Turning to `COc1ccc(OC(C(=O)O)C(C)C)c2c1CCCC2=O` (stereo not drawn), the TGI in the test with ACHN renal, in the test on HCT-116 colon, in the test on KM12 colon, in the test with SF-295 CNS, in the test with TK-10 renal and with UACC-257 melanoma was above 100 µM throughout.
Take `C#CCNC(=O)ON1C(=O)CCC1=O`: the TGI in the test on ACHN renal, in the test on HCT-116 colon, in the test with KM12 colon, in the test with RXF 393 renal, in the test on SF-295 CNS and with TK-10 renal was above 100 µM throughout. This molecule had a TGI with UACC-257 melanoma above 100 µM.
As for `C[Si](C)(C)C(CCCCSc1ccccc1)(Sc1ccccc1)Sc1ccccc1`, the TGI in the test on ACHN renal, in the test with HCT-116 colon, in the test on KM12 colon, in the test with RXF 393 renal, in the test with SF-295 CNS and in the test with SR leukemia was above 100 µM in each case. Moreover, the TGI in the test on TK-10 renal and in the test with UACC-257 melanoma was above 100 µM throughout.
Regarding `CCOC(=O)c1c(C)n(Cc2ccc(Cl)cc2Cl)c2c1cc1oc(=O)c(=O)n3cnc2c13`, the GI50 in the test on ACHN renal is 14.4 µM; with HCT-116 colon, 18.6 µM; in the test on HS 578T breast it was 24.1 µM; in the test with KM12 colon it was 11.6 µM; with RXF 393 renal, 4.16 µM; in the test on SF-295 CNS, 21.1 µM. Also, the results for the GI50 with SR leukemia, in the test on TK-10 renal and in the test with UACC-257 melanoma were 1.09 µM, 17.4 µM and 9.51 µM, respectively. In addition, the TGI with ACHN renal is 27.5 µM; in the test on HCT-116 colon, 36 µM; in the test on HS 578T breast, 64.2 µM; in the test with KM12 colon, 26 µM; in the test with RXF 393 renal it was 15.3 µM; in the test with SF-295 CNS it was 43.1 µM. For the same molecule, the TGI with SR leukemia is 5.85 µM; with TK-10 renal it was 33 µM; in the test on UACC-257 melanoma it was 21.7 µM.
Regarding `Cc1ccc(S(=O)(=O)N=NC=C2c3ccccc3N(O)c3ccccc32)cc1`, the TGI in the test with ACHN renal came to 9.43 µM; in the test on HCT-116 colon, 1.94 µM; in the test on KM12 colon it was 26.6 µM; in the test on SF-295 CNS it was 21.6 µM; in the test with TK-10 renal, 16.5 µM; in the test on UACC-257 melanoma, 23.7 µM.
Consider `CCOC(=O)CN(Cn1cncn1)Cn1cncn1`, for which the TGI in the test with ACHN renal is above 100 µM; with HCT-116 colon, above 100 µM; in the test with KM12 colon, 44.6 µM; in the test with RXF 393 renal, 36 µM; in the test on SF-295 CNS, above 100 µM; in the test with TK-10 renal, above 100 µM. Also, in the test on UACC-257 melanoma, the TGI stood at 33 µM.
Take `O=C(C#Cc1ccccc1)N1c2ccccc2CC1c1c[nH]c2ccccc12` (stereo not drawn): the TGI amounted to 66 µM with ACHN renal; 26.5 µM in the test with HCT-116 colon; 31.5 µM in the test on KM12 colon; 19.5 µM in the test with RXF 393 renal; 49.7 µM in the test with SF-295 CNS; 45.3 µM in the test on SR leukemia. In addition, the TGI with TK-10 renal turned out to be 44.2 µM; in the test on UACC-257 melanoma, 42 µM.
With `N/C(=N\NS(=O)(=O)c1ccccc1)Oc1ccc(Br)cc1Br`, the TGI in the test with ACHN renal, with HCT-116 colon, with KM12 colon, in the test on RXF 393 renal, in the test with SF-295 CNS and in the test with SR leukemia was above 100 µM each time. The TGI in the test on TK-10 renal and with UACC-257 melanoma was above 100 µM throughout.
As for `CCC(C)Oc1nc2c(c(=O)n(C)c(=O)n2C)n1C` (stereo not drawn), the GI50 with ACHN renal, in the test on HCT-116 colon, with KM12 colon, with MCF7 breast, in the test with RXF 393 renal and in the test on SF-295 CNS was above 100 µM in each case. Besides, the GI50 with SR leukemia, in the test on TK-10 renal and in the test on UACC-257 melanoma was above 100 µM throughout. In addition, the TGI in the test with ACHN renal, in the test with HCT-116 colon, in the test with KM12 colon, in the test with MCF7 breast, in the test with RXF 393 renal and in the test with SF-295 CNS was above 100 µM in each case. Besides, the TGI with SR leukemia, with TK-10 renal and with UACC-257 melanoma was above 100 µM in each case.
With `CC1(c2cc3c(cc2Br)OCO3)SCCCS1`, the TGI is above 100 µM with ACHN renal; above 100 µM with HCT-116 colon; above 100 µM with KM12 colon; 37.3 µM in the test with RXF 393 renal; above 100 µM in the test with SF-295 CNS; above 100 µM with TK-10 renal.
